Laboratory results published in patent publication EP0981349B1, “5-ALPHA-PREGNAN-3-BETA-OL-20-ONE SULFATE FOR THE TREATMENT OF TUMOURS AND CNS DISEASES” (Wyeth, priority 1997, dated 1998).
Where a name gives a salt, the structure may show the parent alone.

Key:
progesterone receptors = biological target: T1, progesterone receptors (Homo sapiens, UniProt P06401); experiment: Stimulation of alkaline phosphatase enzyme activity in T47D cells (progestational activity)
T1 sequence (P06401 1-933): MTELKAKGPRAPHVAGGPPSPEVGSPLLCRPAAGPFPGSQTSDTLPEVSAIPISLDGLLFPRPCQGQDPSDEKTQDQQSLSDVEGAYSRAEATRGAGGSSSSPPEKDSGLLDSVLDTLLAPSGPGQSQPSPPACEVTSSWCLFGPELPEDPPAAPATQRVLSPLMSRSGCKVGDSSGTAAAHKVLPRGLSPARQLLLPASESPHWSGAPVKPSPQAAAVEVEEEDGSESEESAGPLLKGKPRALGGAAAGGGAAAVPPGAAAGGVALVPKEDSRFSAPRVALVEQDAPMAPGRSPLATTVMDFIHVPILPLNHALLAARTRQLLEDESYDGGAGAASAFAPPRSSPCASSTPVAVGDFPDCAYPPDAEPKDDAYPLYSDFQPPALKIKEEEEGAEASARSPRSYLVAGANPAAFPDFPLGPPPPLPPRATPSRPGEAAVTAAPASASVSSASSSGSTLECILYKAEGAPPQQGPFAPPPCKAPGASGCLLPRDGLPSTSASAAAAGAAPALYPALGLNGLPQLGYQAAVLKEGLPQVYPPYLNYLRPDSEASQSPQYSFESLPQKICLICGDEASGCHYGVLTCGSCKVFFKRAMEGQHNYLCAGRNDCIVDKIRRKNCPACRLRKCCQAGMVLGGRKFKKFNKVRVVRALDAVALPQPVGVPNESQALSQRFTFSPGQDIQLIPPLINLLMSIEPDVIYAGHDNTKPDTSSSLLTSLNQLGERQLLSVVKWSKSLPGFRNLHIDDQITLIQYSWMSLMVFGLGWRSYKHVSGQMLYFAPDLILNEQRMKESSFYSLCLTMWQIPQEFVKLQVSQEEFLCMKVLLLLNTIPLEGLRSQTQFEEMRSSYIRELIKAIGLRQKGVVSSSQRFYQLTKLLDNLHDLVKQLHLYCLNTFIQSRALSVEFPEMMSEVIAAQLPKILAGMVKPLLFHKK
Description: The progestational activity of a representative compound of this invention (5α-pregnan-3β-ol-20-one 3-sulfate ester sodium salt) was evaluated in an in vitro standard pharmacological test procedure.
In this test procedure, the progestational activity of a compound is quantified based on its stimulation of alkaline phosphatase enzyme activity in T47D cells, a human breast cancer cell line which expresses high levels of progesterone receptors. This is a well established test procedure in which both the progestin receptors and the response stimulated by activated progestin receptors are endogenous to the cells. Cells are pre-conditioned in low serum medium for one day and then treated with test compounds. Alkaline phosphatase activity is measured 24 hr after treatment.

[1] = system: potassium channel currents; experiment: Whole cell recording of potassium currents from cultured hippocampal neurons; format: cell-based; conditions: 2 µM, p = 0.0006
Description: (§1) Briefly, the following procedure was used.
(§2) Whole cell recording techniques were used to record calcium and potassium currents from cultured hippocampal neurons. The compounds to be evaluated were made fresh each day in a 400 µM ethanol stock solution. The test compounds were diluted in saline to obtain a final concentration of 2 µM. The amplitude of calcium or potassium currents in control, test compound, and washout solutions was measured from at least 10 current traces for each condition. To compensate for rundown of the calcium current with time, control and washout currents were averaged. The current amplitude with drug was divided by the averaged control and washout current to determine the percent change. The means, standard deviations and errors for each test compound were calculated and significance from control was determined using the paired T-Test.

calcium channel currents = experiment: Whole cell recording of calcium currents from cultured hippocampal neurons; format: cell-based; conditions: 2 µM, p = 0.044
Description: as §1, §2

fold induction of alkaline phosphatase (progesterone receptors; t47d cells, 24 h) | SMILES | increased potassium channel currents versus control [1] [%] | EC50 (progesterone receptors) [µM] | Calcium channel currents decrease versus control (calcium channel currents) [%]
30 - 60 fold | CC(=O)O[C@]1(C(C)=O)CC[C@H]2[C@@H]3C[C@H](C)C4=CC(=O)CC[C@]4(C)[C@H]3CC[C@@]21C [medroxyprogesterone acetate, reference compound] |  |  | 
 | CC(=O)[C@H]1CC[C@H]2[C@@H]3CC[C@H]4C[C@@H](OS(=O)(=O)O)CC[C@]4(C)[C@H]3CC[C@]12C [5α-pregnan-3β-ol-20-one 3-sulfate ester sodium salt] | 21.76 ± 2.40 | 5 | 4.64 ± 1.64
